Measurements reported in patent US20060276416A1, “Methods and compositions for treating flushing and drug induced weight gain” (Sirtris Pharmaceuticals, Inc., priority 2005, published 2006).

What was measured:
recombinant human SIRT1 = molecular target: T1, recombinant human SIRT1 (Homo sapiens, UniProt Q96EB6); test: SIRT1 fluorescent deacetylation assay (p53-382 acetylated peptide); format: biochemical
T1 sequence (Q96EB6 1-747): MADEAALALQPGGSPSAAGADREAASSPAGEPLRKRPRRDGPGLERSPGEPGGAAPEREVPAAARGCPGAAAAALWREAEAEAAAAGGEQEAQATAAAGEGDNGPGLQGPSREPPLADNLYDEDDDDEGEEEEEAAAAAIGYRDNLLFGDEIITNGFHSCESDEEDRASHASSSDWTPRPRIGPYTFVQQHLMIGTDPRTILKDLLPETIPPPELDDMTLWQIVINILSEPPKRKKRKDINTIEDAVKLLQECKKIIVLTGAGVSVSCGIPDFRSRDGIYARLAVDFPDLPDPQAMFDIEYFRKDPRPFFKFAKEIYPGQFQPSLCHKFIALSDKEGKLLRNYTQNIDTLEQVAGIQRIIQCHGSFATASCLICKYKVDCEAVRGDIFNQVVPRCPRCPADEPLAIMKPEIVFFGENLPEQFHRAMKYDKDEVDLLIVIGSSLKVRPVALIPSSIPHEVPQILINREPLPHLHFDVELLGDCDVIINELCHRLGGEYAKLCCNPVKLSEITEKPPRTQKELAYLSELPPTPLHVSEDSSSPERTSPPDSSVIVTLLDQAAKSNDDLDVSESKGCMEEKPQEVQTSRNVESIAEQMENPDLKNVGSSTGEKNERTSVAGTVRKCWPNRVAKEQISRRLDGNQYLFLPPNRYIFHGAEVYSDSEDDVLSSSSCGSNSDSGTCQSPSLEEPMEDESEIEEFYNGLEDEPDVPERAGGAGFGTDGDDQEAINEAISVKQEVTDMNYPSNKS
Description: To identify compounds that modulate SIRT1 activity, a number of small molecule libraries were screened using a fluorescent deacetylation assay in 96-well plates^26. The substrate used in the assay was a fluorogenic peptide based on the sequence encompassing the p53-K382 acetylation site, a known target of SIRT1 in vivo^20,21,27. […] The small molecule libraries included analogues of nicotinamide, ε-acetyl lysine, NAD^+, nucleotides, nucleotide analogues and purinergic ligands.
From 0.1 to 1 μg of SIRT1 and 1.5 μg of Sir2 were used per deacetylation assay (in 50 μl total reaction) as previously described^26. SIRT1 assays and certain of those for Sir2 employed the p53-382 acetylated substrate (‘Fluor de Lys-SIRT1’, BIOMOL) rather than FdL.
Themed compound libraries (BIOMOL) were used for primary and secondary screening. Most polyphenol compounds were dissolved at 10 mM in dimethylsulfoxide (DMSO) on the day of the assay. For water soluble compounds and negative controls, 1% v/v DMSO was added to the assay. In vitro fluorescence assay results were read in white ½-volume 96-well microplates (Corning Costar 3693) with a CytoFluor™ II fluorescence plate reader (PerSeptive Biosystems, Ex. 360 nm, Em. 460 nm, gain=85). […] Unless otherwise indicated all initial rate measurements were means of three or more replicates, obtained with single incubation times, at which point 5% or less of the substrate initially present had been deacetylated. Calculation of net fluorescence increases included subtraction of a blank value, which in the case of Sir2 was obtained by omitting the enzyme from the reaction and in the case of SIRT1 by adding an inhibitor (200 μM suramin or 1 mM nicotinamide) to the reaction prior to the acetylated substrate. A number of the polyphenols partially quenched the fluorescence produced in the assay and correction factors were obtained by determining the fluorescence increase due to a 3 μM spike of an FdL deacetylated standard (BIOMOL, catalog number KI-142). All error bars represent the standard error of the mean.
All SIRT1 rate measurements used in the calculation of “Ratio to Control Rate” were obtained with 25 μM NAD^+ and 25 μM p53-382 acetylated peptide substrate were performed as described above and in K. T. Howitz et al. Nature (2003) 425: 191. All ratio data were calculated from experiments in which the total deacetylation in the control reaction was 0.25-1.25 μM peptide or 1-5% of the initial concentration of acetylated peptide.

Human 293 = test: Survival of 293 cells (Coulter counter); format: cell-based; conditions: 50 micromolar
Description: The number of live cells each time point was counted using a Coulter counter.

C. elegans = C. elegans fat accumulation, Nile Red staining; format: in vivo; conditions: 100 μM
Description: Fat accumulation was visualized with Nile Red staining, as described further below and in Ashrafi K, et al. Nature 421:268-27 (2003).
Synchronized starved L1 worms were grown in the presence of Nile Red. Strains were grown on NGM plates at 25° C. for approximately 48 hours until the young adult stage was reached. 20-30 young adult worms were then washed 2× with M9 buffer and transferred to new NGM/Nile red experimental plates that contained either OP50 or HTT5 E. coli carrying the L4440 RNAi control vector.
Young adults were transferred to plates containing the appropriate vector, Nile Red stain and drug then maintained at 25° C.
Nile Red: Nile Red Powder (Sigma #N-3013) was dissolved in acetone at 500 μg/ml, diluted in 1× Phosphate Buffered Saline (PBS) including appropriate drug and applied to surface of Nematode Growth Media (NGM) plates previously seeded with OP50 or RNAi bacteria, at a final concentration of 0.05 μg/ml. Fat content was monitored and recorded by fluorescence microscopy.

HeLa S3 cells = test: Cellular deacetylase assay (TSA-insensitive FdL deacetylation); format: cell-based, human; conditions: 500 μM compound, 200 μM FdL, 1 μM TSA, 1 hour
Description: FdL (200 μM) is added to growth media and cells incubated for 1-3 hours to allow FdL to enter the cells and the lysine-deacetylated product (deAc-FdL) to accumulate intracellularly. Cells are lysed with detergent in the presence of 1 μM TSA, 1 mM nicotinamide. Addition of the non-cell-permeable Developer (BIOMOL) releases a fluorophor, specifically from deAc-FdL. b, SIRT1 activating polyphenols can stimulate TSA-insensitive, FdL deacetylation by HeLa S3 cells. Cells were grown adherently in DMEM/10% FCS and treated for 1 hour with 200 μM FdL, 1 μM TSA and either vehicle (0.5% final DMSO, Control) or 500 μM of the indicated compound. Intracellular accumulation of deAc-FdL was then determined as described briefly in a. […] Lysates were prepared and analyzed as above. […]
Themed compound libraries (BIOMOL) were used for primary and secondary screening. […] In vitro fluorescence assay results were read in white ½-volume 96-well microplates (Corning Costar 3693) with a CytoFluor™ II fluorescence plate reader (PerSeptive Biosystems, Ex. 360 nm, Em. 460 nm, gain=85). HeLa cells were grown and the cellular deacetylation assays were performed and read, as above, but in full-volume 96-well microplates (Corning Costar 3595). […]

| Structure (SMILES) | v1/v2 (rate for pure SIRT1/BML-230 divided by that for pure SIRT1/resveratrol) (recombinant human SIRT1; R at 500 μM) | Stimulated SIRT1 activity compared with resveratrol (recombinant human SIRT1; all concentrations tested, 25 μM NAD+ and p53-382 peptide, 20 minutes) | Dissociation constant of SIRT1 complex compared with SIRT1/resveratrol (recombinant human SIRT1; inferred from two state model) | Toxicity on 293 cells (in words) (Human 293) | Fat staining (C. elegans; 24 hours, control 1% v/v DMSO) | Effect on the cellular (TSA-insensitive) deacetylation signal (HeLa S3 cells) | Fat mobilization (C. elegans; 48 hours) |
| --- | --- | --- | --- | --- | --- | --- | --- |
| CSc1ccc(/C=C/c2cc(O)cc(O)c2)cc1 [BML-230, 3,5-dihydroxy-4′-thiomethyl-trans-stilbene] | ≤ 1.4 | exceeds | lower dissociation constant | The results indicate that thiomethyl (BML-230) was the least toxic on 293 cells. | Significant reduction | – | – |
| O=C(/C=C/c1ccc(O)c(O)c1)c1ccc(O)cc1O [butein, 3,4,2′,4′-Tetrahydroxychalcone] | – | – | – | – | – | no effect | stimulate fat mobilization |
